The results in this text go back to US6911446B2, “Methods of modulating serine/threonine protein kinase function with quinazoline-based compounds” (Sugen, Inc., priority 1997, dated 2005).

Some results are limits rather than exact numbers.

For the assay, the system named is 3T3/H-Ras (NIH 3T3 clone 7 cells expressing genomic fragment of oncogenic H-Ras). Nature of the assay: Growth of NIH 3T3 cells over expressing H-Ras (SRB). The following applies: Mus musculus, NIH3T3, 72 h, growth of 3T3/H-Ras cells, 3 days with compound. Format: cell-based. Here is the method:
The following assay measures growth rates for NIH-3T3 cells expressing RAS. The purpose of the assay is to determine the effects of compounds on the growth of NIH 3T3 cells over expressing H-Ras.
• 96-well flat bottom sterile plates • 96-well round bottom sterile plates • sterile 25 mL or 100 mL reservoir • pipets, multi-channel pipetman • sterile pipet tips • sterile 15 mL and 50 mL tubes Reagents • 0.4% SRB in 1% acetic acid • 10 mM Tris base • 10% TCA • 1% acetic acid • sterile DMSO (Sigma) • compound in DMSO (100 mM or less stock solution) • Trypsin-EDTA (GIBCO BRL) Cell Line: 3T3/H-Ras (NIH 3T3 clone 7 cells expressing genomic fragment of oncogenic H-Ras).
The cells can be constructed using the following protocol: • 1. Subclone a gene fragment encoding Ras into a commercially available vector that will stably transfect NIH-3T3 cells. The fragment is from the genomic transforming allele of cHa-ras. • 2. Transfect NIH-3T3 cells with the subcloned vector by a calcium phosphate method. Select cells expressing the Ras construct in 2% serum in DMEM. Visible foci are observed after 2 weeks. Pool the transformed cells to generate a stably transformed cell line. Growth Medium: 2% calf serum/DMEM+2 mM glutamine, Pen/Strep Protocol: Day 0: Cell Plating:
This part of assay is carried out in a laminar flow hood. • 1. Trypsinize cells. Transfer 200 μL of cell suspension to 10 mL of isotone. Count cells with a Coulter Counter. • 2. Dilute cells in growth medium to 60,000 cell/mL. Transfer 100 μL of cells to each well in a 96-well flat bottom plate to give 6000 cells/well. • 3. Use half of plate (4 rows) for each comound and quadruplicate wells for each compound concentration, and a set of 4 wells for medium control. • 4. Gently shake plates to allow for uniform attachment of the cells. • 5. Incubate the plates at 37° C. in a 10% CO2 incubator. Day 1: Addition of Compound:
This part of assay is carried out in a laminar flow hood. • 1. In a 96-well round bottom plate, add 120 μL of growth medium containing 2×final % DMSO found in highest screening concentration of compound to columns 1 to 11. For example, if the highest concentration is […], and this is made from a 100 mM stock, 1×DMSO is 0.1%, so 2×DMSO is 0.2%. This plate is used to titrate out the compound, 4 rows per compound. • 2. In a sterile 15 mL tube, make a 2×solution of the highest screening concentration of compound in growth medium plus 2×DMSO. 1 mL per cell line is needed. The starting concentration of the compound is usually 100 μM but this concentration may vary depending upon the solubility of the compound. • 3. Transfer 240 μL of the 2×starting compound solution to qudruplicate wells in column 12 of the 96-well round bottom plate. Do 1:2 serial dilutions across the plate from right to left by transferring […] from column 12 to column 11, column 11 to 10 and so on through column 2. Transfer 100 μL of compound dilutions, and 100 μL of medium in column 1, onto 100 μL medium on cells in corresponding wells of 96-well flat bottom plate. Total volume per well should be 200 μL. • 4. Return the plate to the incubator and incubate for 3 days. Day 4: Development of Assay
This party of assay is carried out on the bench. • 1. Aspirate or pour off medium. Add 200 μL cold 10% TCA to each well to fix cells. Incubate plate for at least 60 min. at 4° C. • 2. Discard TCA and rinse wells 5 times with tap water. Dry plates upside down on paper towels. • 3. Stain cells with 100 μL/well 0.4% SRB for 10 min. • 4. Pour of SRB and rinse wells 5 times with 1% acetic acid. Dry plates completely upside down on paper towels. • 5. Solubilize dye with 100 μL/well 10 mM Tris base for 5-10 min. on shaker. • 6. Read plates on Dynatech ELISA Plate REader at 570 nm with reference at 630 nm.

`COc1cccc(Oc2cccc3nc(N)nc(N)c23)c1` [Compound A-23, 2,4-Diamino-5-(3-methoxyphenoxy)quinazoline]: the IC50 stood at 0.6 µM.
With `Cc1ccc(Oc2cccc3nc(N)nc(N)c23)cc1` [Compound A-9, 2,4-Diamino-5-(4-methylphenoxy)quinazoline], the IC50 stood at 20.4 µM.
`COc1ccc(Oc2cccc3nc(N)nc(N)c23)cc1` [Compound A-6, 2,4-Diamino-5-(4-methoxyphenoxy)quinazoline]: the IC50 was above 100 µM.
Regarding `Nc1nc(N)c2c(Oc3ccc(F)cc3)cccc2n1` [Compound A-7, 2,4-Diamino-5-(4-fluorophenoxy)quinazoline], the IC50 is above 100 µM.
As to `Nc1ncnc2cccc(Oc3ccc(OCc4ccccc4)cc3)c12` [Compound A-28, 4-Amino-5-(4-benzyloxyphenoxy)quinazoline], the IC50 is 6 µM.
The figure for `Nc1nc(N)c2c(Oc3ccccc3)cccc2n1` [Compound A-1, 2,4-Diamino-5-phenoxyquinazoline] is 0.85 µM; for `CC(C)(C)c1ccc(Oc2cccc3nc(N)nc(N)c23)cc1` [Compound A-8, 2,4-Diamino-5-(4-tert-butylphenoxy)quinazoline] it is 22.3 µM.
Consider `COc1ccccc1Oc1cccc2nc(N)nc(N)c12` [Compound A-22, 2,4-Diamino-5-(2-methoxyphenoxy)quinazoline], for which the IC50 came out at 0.4 µM.

The IC50 is the midpoint of a concentration-inhibition curve.
